In patent US11420958B2, “Aryl and heteroaryl substituted indole compounds” (BRISTOL-MYERS SQUIBB COMPANY, priority 2017, dated 2022):

What was measured:
Type in all cases: cell-based
human TLR9 = human TLR9 (Homo sapiens (Human), UniProt Q9NR96); test: TLR9 inhibition reporter assay (HEK-Blue, SEAP); conditions: HEK-Blue cells overexpressing human TLR9, ODN2006 5 nM stimulation
Summary of the method: (§1)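 SEAP read-out via detection medium after 22 h at 37 °C, 5% CO2; percent inhibition relative to agonist-plus-DMSO and known-inhibitor wells. Agonists: TLR7 gardiquimod 7.5 μM, TLR8 R848 15.9 μM, TLR9 ODN2006 5 nM (final). Compound range 0.05 nM–50 μM, 30 min pre-treatment.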

human TLR7 = human TLR7 (Homo sapiens (Human), UniProt Q9NYK1); test: TLR7 inhibition reporter assay (HEK-Blue, SEAP); conditions: HEK-Blue cells overexpressing human TLR7, gardiquimod 7.5 μM stimulation
Chain of human TLR7 (Q9NYK1 27-1049): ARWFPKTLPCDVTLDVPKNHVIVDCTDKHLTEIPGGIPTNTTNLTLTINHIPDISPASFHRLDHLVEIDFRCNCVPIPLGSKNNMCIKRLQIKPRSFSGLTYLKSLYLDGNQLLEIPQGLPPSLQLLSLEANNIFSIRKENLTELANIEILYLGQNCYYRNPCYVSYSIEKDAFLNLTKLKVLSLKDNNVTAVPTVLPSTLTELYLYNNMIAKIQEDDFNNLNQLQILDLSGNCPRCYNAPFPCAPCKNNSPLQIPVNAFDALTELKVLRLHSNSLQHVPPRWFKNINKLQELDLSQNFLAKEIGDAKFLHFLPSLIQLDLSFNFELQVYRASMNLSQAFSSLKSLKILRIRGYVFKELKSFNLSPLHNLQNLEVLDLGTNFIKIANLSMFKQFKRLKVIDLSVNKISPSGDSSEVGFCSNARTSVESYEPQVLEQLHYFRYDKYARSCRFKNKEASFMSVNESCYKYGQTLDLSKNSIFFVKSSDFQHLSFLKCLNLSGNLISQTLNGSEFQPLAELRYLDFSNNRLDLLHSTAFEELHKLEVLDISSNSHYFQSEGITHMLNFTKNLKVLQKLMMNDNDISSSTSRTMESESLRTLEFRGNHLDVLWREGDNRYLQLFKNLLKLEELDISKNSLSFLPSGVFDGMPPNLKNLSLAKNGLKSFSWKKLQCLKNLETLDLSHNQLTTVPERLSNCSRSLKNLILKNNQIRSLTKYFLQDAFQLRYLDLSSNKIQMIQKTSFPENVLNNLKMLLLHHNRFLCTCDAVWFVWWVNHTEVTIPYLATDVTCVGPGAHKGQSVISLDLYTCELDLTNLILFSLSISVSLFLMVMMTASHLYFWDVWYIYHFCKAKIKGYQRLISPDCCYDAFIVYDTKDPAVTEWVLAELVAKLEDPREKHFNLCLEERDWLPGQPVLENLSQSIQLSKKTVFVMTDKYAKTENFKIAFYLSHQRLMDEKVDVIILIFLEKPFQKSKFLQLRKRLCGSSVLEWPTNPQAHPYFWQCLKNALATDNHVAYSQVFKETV
Summary of the method: as §1

human TLR8 = human TLR8 (Homo sapiens (Human), UniProt Q9NR97); test: TLR8 inhibition reporter assay (HEK-Blue, SEAP); conditions: HEK-Blue cells overexpressing human TLR8, R848 15.9 μM stimulation
Chain of human TLR8 (Q9NR97 27-1041): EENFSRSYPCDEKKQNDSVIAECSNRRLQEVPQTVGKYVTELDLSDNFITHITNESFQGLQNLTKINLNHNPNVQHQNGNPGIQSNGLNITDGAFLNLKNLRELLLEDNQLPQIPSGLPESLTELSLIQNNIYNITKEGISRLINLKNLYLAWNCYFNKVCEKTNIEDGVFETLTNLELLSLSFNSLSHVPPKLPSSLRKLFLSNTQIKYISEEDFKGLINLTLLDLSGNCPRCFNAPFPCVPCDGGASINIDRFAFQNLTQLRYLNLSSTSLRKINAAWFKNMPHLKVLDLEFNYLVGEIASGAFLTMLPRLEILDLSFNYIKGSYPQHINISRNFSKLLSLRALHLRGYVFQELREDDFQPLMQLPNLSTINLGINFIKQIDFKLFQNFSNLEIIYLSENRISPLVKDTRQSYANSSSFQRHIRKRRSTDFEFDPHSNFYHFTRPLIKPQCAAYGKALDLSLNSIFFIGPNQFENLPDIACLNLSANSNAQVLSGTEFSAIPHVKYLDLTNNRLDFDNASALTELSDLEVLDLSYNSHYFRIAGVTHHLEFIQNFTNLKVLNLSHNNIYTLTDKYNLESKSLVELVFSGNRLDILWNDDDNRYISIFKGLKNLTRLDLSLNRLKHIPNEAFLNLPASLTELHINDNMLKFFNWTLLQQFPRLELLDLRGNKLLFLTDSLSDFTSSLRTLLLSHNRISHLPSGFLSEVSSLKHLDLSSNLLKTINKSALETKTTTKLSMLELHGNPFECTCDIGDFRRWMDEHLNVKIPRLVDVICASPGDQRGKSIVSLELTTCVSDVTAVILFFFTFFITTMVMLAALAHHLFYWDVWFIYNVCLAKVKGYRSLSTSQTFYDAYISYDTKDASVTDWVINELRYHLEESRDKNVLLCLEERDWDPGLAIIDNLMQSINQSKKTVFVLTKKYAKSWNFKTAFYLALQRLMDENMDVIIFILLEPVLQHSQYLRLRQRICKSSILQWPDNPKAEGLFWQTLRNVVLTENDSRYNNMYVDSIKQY
Summary of the method: as §1

Chain of human TLR9 (Q9NR96 26-1032): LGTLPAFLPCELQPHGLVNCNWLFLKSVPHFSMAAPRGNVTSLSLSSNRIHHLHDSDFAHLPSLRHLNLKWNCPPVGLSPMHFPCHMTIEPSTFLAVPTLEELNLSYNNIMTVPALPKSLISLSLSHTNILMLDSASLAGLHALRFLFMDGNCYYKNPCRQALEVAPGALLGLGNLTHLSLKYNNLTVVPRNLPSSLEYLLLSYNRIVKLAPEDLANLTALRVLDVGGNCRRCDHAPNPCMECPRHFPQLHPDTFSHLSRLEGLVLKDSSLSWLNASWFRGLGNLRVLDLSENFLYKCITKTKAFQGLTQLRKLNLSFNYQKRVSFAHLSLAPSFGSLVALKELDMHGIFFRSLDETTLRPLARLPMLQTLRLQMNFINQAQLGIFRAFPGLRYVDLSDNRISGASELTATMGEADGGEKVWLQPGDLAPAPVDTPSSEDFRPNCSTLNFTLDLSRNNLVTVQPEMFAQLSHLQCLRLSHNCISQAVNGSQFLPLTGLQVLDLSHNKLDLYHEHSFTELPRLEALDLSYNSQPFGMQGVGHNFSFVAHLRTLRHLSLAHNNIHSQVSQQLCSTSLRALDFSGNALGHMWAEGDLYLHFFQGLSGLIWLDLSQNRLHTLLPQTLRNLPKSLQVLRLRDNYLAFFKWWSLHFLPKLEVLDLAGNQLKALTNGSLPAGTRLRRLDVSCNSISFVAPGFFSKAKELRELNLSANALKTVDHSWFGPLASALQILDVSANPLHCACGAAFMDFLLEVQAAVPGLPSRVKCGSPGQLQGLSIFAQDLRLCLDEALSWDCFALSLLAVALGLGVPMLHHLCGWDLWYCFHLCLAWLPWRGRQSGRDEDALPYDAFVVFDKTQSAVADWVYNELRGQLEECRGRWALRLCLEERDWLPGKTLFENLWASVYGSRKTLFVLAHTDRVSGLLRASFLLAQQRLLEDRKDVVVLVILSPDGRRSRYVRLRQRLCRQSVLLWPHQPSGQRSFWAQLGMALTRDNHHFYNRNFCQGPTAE

IC50 (human TLR9) | IC50 (human TLR7) | IC50 (human TLR8) | SMILES
0.824 µM | 0.074 µM | 0.0055 µM | Cc1cc(-c2[nH]c3ccc(-c4ccnc(N5CCN(C)CC5)c4)cc3c2C(C)C)ccn1 [Example 269, 3-isopropyl-5-(2-(4-methylpiperazin-1-yl)pyridin-4-yl)-2-(2-methylpyridin-4-yl)-1H-indole]
0.298 µM | 0.01 µM | 0.001 µM | Cc1cc(-c2[nH]c3ccc(-c4nnc(CCN(C)C)o4)cc3c2C(C)C)cc(C)n1 [Example 270, 2-(5-(2-(2,6-dimethylpyridin-4-yl)-3-isopropyl-1H-indol-5-yl)-1,3,4-oxadiazol-2-yl)-N,N-dimethylethan-1-amine]
0.281 µM | 0.0063 µM | 0.0019 µM | Cc1cc(-c2[nH]c3ccc(-c4nnc(CCCN(C)C)o4)cc3c2C(C)C)cc(C)n1 [Example 271, 3-(5-(2-(2,6-dimethylpyridin-4-yl)-3-isopropyl-1H-indol-5-yl)-1,3,4-oxadiazol-2-yl)-N,N-dimethylpropan-1-amine]
0.38 µM | 0.024 µM | 0.009 µM | Cc1cc(-c2[nH]c3ccc(-c4ccnc(C5CCN(C(C)C)CC5)c4)cc3c2C(C)C)ccn1 [Example 272, 3-isopropyl-5-(2-(1-isopropylpiperidin-4-yl)pyridin-4-yl)-2-(2-methylpyridin-4-yl)-1H-indole]
0.79 µM | 0.045 µM | 0.0058 µM | Cc1cc(-c2[nH]c3ccc(-c4ccnc(N5CCNCC5)c4)cc3c2C(C)C)ccn1 [Example 273, 3-isopropyl-2-(2-methylpyridin-4-yl)-5-(2-(piperazin-1-yl)pyridin-4-yl)-1H-indole]
0.602 µM | 0.022 µM | 0.0062 µM | Cc1cc(-c2[nH]c3ccc(-c4nc(C(=O)NCCN5CCCCC5)co4)cc3c2C(C)C)cc(C)n1 [Example 274, 2-(2-(2,6-dimethylpyridin-4-yl)-3-isopropyl-1H-indol-5-yl)-N-(2-(piperidin-1-yl)ethyl)oxazole-4-carboxamide]
0.601 µM | 0.018 µM | 0.012 µM | Cc1cc(-c2[nH]c3ccc(-c4nc(C(=O)NCCCN5CCCCC5)co4)cc3c2C(C)C)cc(C)n1 [Example 275, 2-(2-(2,6-dimethylpyridin-4-yl)-3-isopropyl-1H-indol-5-yl)-N-(3-(piperidin-1-yl)propyl)oxazole-4-carboxamide]
1.08 µM | 0.049 µM | 0.026 µM | Cc1cc(-c2[nH]c3ccc(-c4nc(C(=O)NCC5CCNC5)co4)cc3c2C(C)C)cc(C)n1 (stereo not drawn) [Example 276, 2-(2-(2,6-dimethylpyridin-4-yl)-3-isopropyl-1H-indol-5-yl)-N-(pyrrolidin-3-ylmethyl)oxazole-4-carboxamide]
1.08 µM | 0.021 µM | 0.013 µM | Cc1cc(-c2[nH]c3ccc(-c4nc(C(=O)NCC(C)CN)co4)cc3c2C(C)C)cc(C)n1 (stereo not drawn) [Example 277, N-(3-amino-2-methylpropyl)-2-(2-(2,6-dimethylpyridin-4-yl)-3-isopropyl-1H-indol-5-yl)oxazole-4-carboxamide]
0.488 µM | 0.033 µM | 0.037 µM | Cc1cc(-c2[nH]c3ccc(-c4nc(C(=O)NCCCN)co4)cc3c2C(C)C)cc(C)n1 [Example 278, N-(3-aminopropyl)-2-(2-(2,6-dimethylpyridin-4-yl)-3-isopropyl-1H-indol-5-yl)oxazole-4-carboxamide]
0.128 µM | 0.014 µM | 0.0088 µM | CNCCCNC(=O)c1coc(-c2ccc3[nH]c(-c4cc(C)nc(C)c4)c(C(C)C)c3c2)n1 [Example 279, 2-(2-(2,6-dimethylpyridin-4-yl)-3-isopropyl-1H-indol-5-yl)-N-(3-(methylamino)propyl)oxazole-4-carboxamide]
0.156 µM | 0.0038 µM | 0.0018 µM | Cc1cc(-c2[nH]c3ccc(-c4nc(C(=O)NCCCN(C)C)co4)cc3c2C(C)C)cc(C)n1 [Example 280, N-(3-(dimethylamino)propyl)-2-(2-(2,6-dimethylpyridin-4-yl)-3-isopropyl-1H-indol-5-yl)oxazole-4-carboxamide]
11.2 µM | 0.034 µM | 0.0087 µM | Cc1cc(-c2[nH]c3ccc(-c4nc(C(=O)NCCN5CCOCC5)co4)cc3c2C(C)C)cc(C)n1 [Example 281, 2-(2-(2,6-dimethylpyridin-4-yl)-3-isopropyl-1H-indol-5-yl)-N-(2-morpholinoethyl)oxazole-4-carboxamide]
2.38 µM | 0.072 µM | 0.016 µM | Cc1cc(-c2[nH]c3ccc(-c4nc(C(=O)N[C@H]5CC[C@H](N)CC5)co4)cc3c2C(C)C)cc(C)n1 [Example 282]
2.36 µM | 0.147 µM | 0.0093 µM | CCOC(=O)N1CCC(NC(=O)c2coc(-c3ccc4[nH]c(-c5cc(C)nc(C)c5)c(C(C)C)c4c3)n2)CC1 [Example 283, ethyl 4-(2-(2-(2,6-dimethylpyridin-4-yl)-3-isopropyl-1H-indol-5-yl)oxazole-4-carboxamido)piperidine-1-carboxylate]
0.563 µM | 0.012 µM | 0.0096 µM | Cc1cc(-c2[nH]c3ccc(-c4nc(C(=O)NCCCN5CCCC5)co4)cc3c2C(C)C)cc(C)n1 [Example 284, 2-(2-(2,6-dimethylpyridin-4-yl)-3-isopropyl-1H-indol-5-yl)-N-(3-(pyrrolidin-1-yl)propyl)oxazole-4-carboxamide]
0.466 µM | 0.0086 µM | 0.0056 µM | Cc1cc(-c2[nH]c3ccc(-c4nc(C(=O)NCCCCN5CCCC5)co4)cc3c2C(C)C)cc(C)n1 [Example 285, 2-(2-(2,6-dimethylpyridin-4-yl)-3-isopropyl-1H-indol-5-yl)-N-(4-(pyrrolidin-1-yl)butyl)oxazole-4-carboxamide]
0.202 µM | 0.012 µM | 0.0019 µM | Cc1cc(-c2[nH]c3ccc(-c4nc(C(=O)NCCCN5CCN(C)CC5)co4)cc3c2C(C)C)cc(C)n1 [Example 286, 2-(2-(2,6-dimethylpyridin-4-yl)-3-isopropyl-1H-indol-5-yl)-N-(3-(4-methylpiperazin-1-yl)propyl)oxazole-4-carboxamide]
0.399 µM | 0.017 µM | 0.0066 µM | Cc1cc(-c2[nH]c3ccc(-c4nc(C(=O)NCC5CCCCN5)co4)cc3c2C(C)C)cc(C)n1 (stereo not drawn) [Example 287, 2-(2-(2,6-dimethylpyridin-4-yl)-3-isopropyl-1H-indol-5-yl)-N-(piperidin-2-ylmethyl)oxazole-4-carboxamide]
0.73 µM | 0.069 µM | 0.08 µM | Cc1cc(-c2[nH]c3ccc(-c4nc(C(=O)NCC5CNC5)co4)cc3c2C(C)C)cc(C)n1 [Example 288, N-(azetidin-3-ylmethyl)-2-(2-(2,6-dimethylpyridin-4-yl)-3-isopropyl-1H-indol-5-yl)oxazole-4-carboxamide]
2.09 µM | 0.1 µM | 0.01 µM | Cc1cc(-c2[nH]c3ccc(-c4nc(C(=O)NCC(C)(C)N5CCOCC5)co4)cc3c2C(C)C)cc(C)n1 [Example 289, 2-(2-(2,6-dimethylpyridin-4-yl)-3-isopropyl-1H-indol-5-yl)-N-(2-methyl-2-morpholinopropyl)oxazole-4-carboxamide]
